The text below walks through data of patent US9580416B2, “Inhibitors of Bruton's tyrosine kinase” (PHARMACYCLICS LLC, priority 2014, dated 2017).

Holding throughout (format): biochemical
In experiment [1] the target is Btk (Homo sapiens, UniProt Q06187). As to the kind of experiment: Btk kinase activity, TR-FRET assay. Conditions: read-out: Btk (IC50). Put shortly:
(§1)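 Enzyme (Btk 0.5 nM; Lck 6 nM) reacted 1 h with inhibitor, ATP at Km and biotin-peptide substrate in pH 7.4 buffer, 10% DMSO. Phosphopeptide detected by Eu-p-Tyr100 antibody plus streptavidin-APC (665/615 nm). IC50 calculated from fitted Ki(app) via ATP/Km correction plus half total enzyme.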

Experiment [2] concerns the target EGFR (Homo sapiens, UniProt P00533). As to the kind of experiment: Inhibition of a panel of kinases, in vitro HotSpot kinase assay: EGFR. How it is done:
(§2) The degree of inhibition of a panel of kinases is determined using the in vitro HotSpot kinase assay (purified enzymes, ^33P-ATP, an appropriate substrate and 1 uM ATP).

Experiment [3] deals with T1, JAK3 (Homo sapiens, UniProt P52333).
T1 sequence (P52333 1-1124): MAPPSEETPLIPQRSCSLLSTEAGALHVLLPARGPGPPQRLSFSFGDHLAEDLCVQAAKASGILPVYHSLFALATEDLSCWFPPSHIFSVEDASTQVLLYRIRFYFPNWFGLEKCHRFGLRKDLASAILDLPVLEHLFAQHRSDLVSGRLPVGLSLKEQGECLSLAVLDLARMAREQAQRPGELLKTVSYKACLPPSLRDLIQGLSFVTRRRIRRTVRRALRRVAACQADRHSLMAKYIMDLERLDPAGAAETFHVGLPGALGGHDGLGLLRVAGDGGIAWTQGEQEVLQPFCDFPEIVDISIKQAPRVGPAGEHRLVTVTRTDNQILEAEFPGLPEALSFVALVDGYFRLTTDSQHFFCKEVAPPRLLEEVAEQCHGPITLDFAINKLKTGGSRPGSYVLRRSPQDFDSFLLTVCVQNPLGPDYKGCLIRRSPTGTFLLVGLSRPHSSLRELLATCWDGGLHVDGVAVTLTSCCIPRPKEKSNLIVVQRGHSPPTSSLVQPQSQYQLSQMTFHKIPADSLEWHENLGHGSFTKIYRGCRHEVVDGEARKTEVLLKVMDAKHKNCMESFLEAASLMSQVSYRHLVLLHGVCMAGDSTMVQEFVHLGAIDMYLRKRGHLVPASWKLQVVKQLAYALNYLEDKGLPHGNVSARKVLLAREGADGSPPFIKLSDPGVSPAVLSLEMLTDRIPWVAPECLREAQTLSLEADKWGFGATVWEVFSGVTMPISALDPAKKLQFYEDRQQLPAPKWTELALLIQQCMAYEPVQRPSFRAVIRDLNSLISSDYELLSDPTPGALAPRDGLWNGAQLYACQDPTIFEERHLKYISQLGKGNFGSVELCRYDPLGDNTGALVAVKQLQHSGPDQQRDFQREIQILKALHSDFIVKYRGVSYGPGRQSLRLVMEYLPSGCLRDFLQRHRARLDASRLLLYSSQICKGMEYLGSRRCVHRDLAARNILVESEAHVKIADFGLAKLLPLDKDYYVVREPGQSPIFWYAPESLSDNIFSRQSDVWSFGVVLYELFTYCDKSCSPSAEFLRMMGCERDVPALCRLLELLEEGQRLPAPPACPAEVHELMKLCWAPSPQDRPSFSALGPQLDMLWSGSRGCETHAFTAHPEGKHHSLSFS
As to the kind of experiment: Inhibition of a panel of kinases, in vitro HotSpot kinase assay: JAK3. How it is done: as §2

The target in experiment [4] is Lck (Homo sapiens, UniProt P06239). As to the kind of experiment: Lck kinase activity, TR-FRET assay. Conditions: read-out: LCK (IC50). Put shortly:
as §1
A general note: TR-FRET usually uses a lanthanide donor and a delayed reading to cut background.

Broadly, the IC50 is the concentration needed to halve the response being measured.

Some results are limits rather than exact numbers.

Sequence of Btk (Q06187 whole entry): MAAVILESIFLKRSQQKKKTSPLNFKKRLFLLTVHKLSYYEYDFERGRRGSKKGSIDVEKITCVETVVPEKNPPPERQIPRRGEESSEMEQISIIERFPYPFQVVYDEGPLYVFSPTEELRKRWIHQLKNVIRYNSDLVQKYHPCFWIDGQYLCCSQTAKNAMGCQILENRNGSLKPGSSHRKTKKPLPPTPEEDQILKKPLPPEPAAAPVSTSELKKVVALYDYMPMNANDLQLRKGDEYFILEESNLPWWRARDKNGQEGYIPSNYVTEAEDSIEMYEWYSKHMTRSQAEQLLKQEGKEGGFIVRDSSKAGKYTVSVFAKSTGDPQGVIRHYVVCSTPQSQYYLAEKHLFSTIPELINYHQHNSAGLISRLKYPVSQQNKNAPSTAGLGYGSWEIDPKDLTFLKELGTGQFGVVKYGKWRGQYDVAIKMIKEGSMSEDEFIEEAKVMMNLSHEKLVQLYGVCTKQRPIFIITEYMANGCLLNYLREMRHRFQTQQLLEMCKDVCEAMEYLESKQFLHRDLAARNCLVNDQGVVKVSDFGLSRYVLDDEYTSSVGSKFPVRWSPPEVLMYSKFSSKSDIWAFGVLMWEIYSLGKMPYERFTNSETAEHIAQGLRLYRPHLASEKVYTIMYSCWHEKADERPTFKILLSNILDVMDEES
Sequence of Lck (P06239 whole entry, species assumed): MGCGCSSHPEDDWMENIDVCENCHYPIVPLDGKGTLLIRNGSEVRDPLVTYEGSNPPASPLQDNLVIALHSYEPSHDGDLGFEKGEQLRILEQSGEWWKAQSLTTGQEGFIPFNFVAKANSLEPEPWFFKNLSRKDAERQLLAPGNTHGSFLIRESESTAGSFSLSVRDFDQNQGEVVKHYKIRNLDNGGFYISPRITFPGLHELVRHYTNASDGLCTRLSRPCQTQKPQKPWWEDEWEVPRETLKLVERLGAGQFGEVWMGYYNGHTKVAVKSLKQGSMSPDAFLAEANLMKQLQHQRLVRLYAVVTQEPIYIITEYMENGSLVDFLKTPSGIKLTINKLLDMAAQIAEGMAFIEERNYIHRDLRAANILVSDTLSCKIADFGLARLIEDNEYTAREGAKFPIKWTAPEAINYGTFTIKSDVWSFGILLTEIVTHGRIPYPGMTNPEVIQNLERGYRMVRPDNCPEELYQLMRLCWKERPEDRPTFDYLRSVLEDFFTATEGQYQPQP
Sequence of EGFR (P00533 25-1210): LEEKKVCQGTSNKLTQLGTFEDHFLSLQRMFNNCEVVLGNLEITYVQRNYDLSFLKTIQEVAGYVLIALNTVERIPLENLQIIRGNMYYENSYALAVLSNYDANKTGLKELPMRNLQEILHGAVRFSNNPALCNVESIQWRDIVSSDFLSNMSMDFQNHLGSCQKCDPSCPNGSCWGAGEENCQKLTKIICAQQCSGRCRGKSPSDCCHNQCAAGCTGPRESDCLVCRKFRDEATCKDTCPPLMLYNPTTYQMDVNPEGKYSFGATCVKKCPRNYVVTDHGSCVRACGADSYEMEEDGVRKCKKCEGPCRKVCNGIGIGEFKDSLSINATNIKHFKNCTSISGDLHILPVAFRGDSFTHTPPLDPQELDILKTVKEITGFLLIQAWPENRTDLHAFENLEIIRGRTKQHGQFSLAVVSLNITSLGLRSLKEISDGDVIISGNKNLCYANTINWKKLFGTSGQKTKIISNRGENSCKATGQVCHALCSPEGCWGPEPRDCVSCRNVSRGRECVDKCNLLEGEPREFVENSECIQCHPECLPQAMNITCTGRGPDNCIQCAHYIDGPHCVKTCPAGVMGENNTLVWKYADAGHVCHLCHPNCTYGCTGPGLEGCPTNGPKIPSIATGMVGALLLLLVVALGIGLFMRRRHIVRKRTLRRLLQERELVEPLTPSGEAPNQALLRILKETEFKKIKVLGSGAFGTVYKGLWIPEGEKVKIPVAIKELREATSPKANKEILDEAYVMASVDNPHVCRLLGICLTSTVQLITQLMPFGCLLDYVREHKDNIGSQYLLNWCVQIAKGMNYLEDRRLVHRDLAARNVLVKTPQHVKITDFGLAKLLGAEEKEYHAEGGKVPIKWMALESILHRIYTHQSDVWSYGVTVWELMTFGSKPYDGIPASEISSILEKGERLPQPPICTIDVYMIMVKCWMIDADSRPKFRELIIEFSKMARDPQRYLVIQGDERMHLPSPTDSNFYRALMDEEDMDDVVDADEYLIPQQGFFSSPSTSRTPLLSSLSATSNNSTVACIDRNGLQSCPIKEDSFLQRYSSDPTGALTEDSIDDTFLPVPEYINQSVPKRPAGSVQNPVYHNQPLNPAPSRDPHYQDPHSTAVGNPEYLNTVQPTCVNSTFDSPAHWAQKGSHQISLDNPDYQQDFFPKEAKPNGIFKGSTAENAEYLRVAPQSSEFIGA

Take `Cc1ccnc(NC(=O)c2ccc(Oc3ccnc4[nH]nc(N[C@@H]5CCCN(C(=O)CCCN(C)C)C5)c34)cc2)c1` [compound 95]: the IC50 was less than 100 nM in experiment [1], 1000 to 10000 nM in experiment [2], more than 10000 nM in experiment [3] and less than 100 nM in experiment [4].
As for `O=C(Nc1cc(C(F)(F)F)ccn1)c1ccc(Oc2ccnc3[nH]nc(N[C@@H]4CCN(C(=O)C5CC5)C4)c23)cc1` [compound 215, 4-[(3-{[(3R)-1-cyclopropanecarbonylpyrrolidin-3-yl]amino}-1H-pyrazolo[3,4-b]pyridin-4-yl)oxy]-N-[4-(trifluoromethyl)pyridin-2-yl]benzamide], the IC50 is less than 100 nM in experiment [1], more than 10000 nM in experiment [2], more than 10000 nM in experiment [3] and 1000 to 10000 nM in experiment [4].
For the compound `Cc1cnc(NC(=O)c2ccc(Oc3ccnc4[nH]nc(N[C@@H]5CCN(C(=O)C6CCN(C)CC6)C5)c34)cc2)s1` [compound 221, N-(5-methyl-1,3-thiazol-2-yl)-4-[(3-{[(3R)-1-(1-methylpiperidine-4-carbonyl)pyrrolidin-3-yl]amino}-1H-pyrazolo[3,4-b]pyridin-4-yl)oxy]benzamide], the IC50 in experiment [1] is less than 100 nM; in experiment [2], 1000 to 10000 nM; in experiment [3], more than 10000 nM; in experiment [4], 100 to 1000 nM.
On the same counts, the results for `CC(=O)N1CCC[C@@H](Oc2n[nH]c3nccc(Nc4cccc(C(=O)Nc5ccc(C(C)C)c(C)c5)c4)c23)C1` [compound 135, 3-[(3-{[(3R)-1-acetylpiperidin-3-yl]oxy}-1H-pyrazolo[3,4-b]pyridin-4-yl)amino]-N-[3-methyl-4-(propan-2-yl)phenyl]benzamide] are 100 to 1000 nM, 1000 to 10000 nM, more than 10000 nM and 1000 to 10000 nM.
The matching figures for `C=CC(=O)N1CCC[C@@H](Nc2n[nH]c3nccc(Oc4ccc(C(=O)Nc5nc6ccccc6s5)cc4)c23)C1` [compound 162]: less than 100 nM, less than 100 nM, less than 100 nM and 100 to 1000 nM.
The matching figures for `Cc1cc(Oc2ccccc2)ccc1Oc1ccnc2[nH]nc(N[C@@H]3CCCN(C(=O)/C=C/CN(C)C4CC4)C3)c12` [compound 169]: less than 100 nM, 100 to 1000 nM, 1000 to 10000 nM and less than 100 nM.
On to `C=CC(=O)N1CCC[C@@H](Nc2n[nH]c3nccc(Oc4cccc(C(=O)Nc5ccc(C(C)C)c(C)c5)c4)c23)C1` [compound 250, (R)-3-(3-(1-acryloylpiperidin-3-ylamino)-1H-pyrazolo[3,4-b]pyridin-4-yloxy)-N-(4-isopropyl-3-methylphenyl)benzamide], for which the IC50 in experiment [1], in experiment [2], in experiment [3] and in experiment [4] was less than 100 nM in each case.
As to `CCNC(=O)N[C@@H]1CCCN(c2n[nH]c3nccc(Oc4ccc(C(=O)Nc5cc(C(F)(F)F)ccn5)cc4)c23)C1` [compound 228, 4-({3-[(3R)-3-[(ethylcarbamoyl)amino]piperidin-1-yl]-1H-pyrazolo[3,4-b]pyridin-4-yl}oxy)-N-[4-(trifluoromethyl)pyridin-2-yl]benzamide], the IC50 in experiment [1] was less than 100 nM; in experiment [2], 1000 to 10000 nM; in experiment [3] it was more than 10000 nM; in experiment [4], 100 to 1000 nM.
`C=CC(=O)N1CC[C@@H](Nc2n[nH]c3nccc(Oc4ccc(Oc5ccccc5)cc4)c23)C1` [compound 4, 1-[(3R)-3-{[4-(4-phenoxyphenoxy)-1H-pyrazolo[3,4-b]pyridin-3-yl]amino}pyrrolidin-1-yl]prop-2-en-1-one]: the IC50 in experiment [1] was less than 100 nM; in experiment [2], less than 100 nM; in experiment [3], 100 to 1000 nM; in experiment [4], less than 100 nM.
As for `Cc1cccc(NC(=O)c2ccc(Oc3ccnc4[nH]nc(N[C@@H]5CCCN(C(=O)C6(C)COC6)C5)c34)cc2)n1` [compound 113, 4-[(3-{[(3R)-1-(3-methyloxetane-3-carbonyl)piperidin-3-yl]amino}-1H-pyrazolo[3,4-b]pyridin-4-yl)oxy]-N-(6-methylpyridin-2-yl)benzamide], the IC50 in experiment [1] was 100 to 1000 nM; in experiment [2], more than 10000 nM; in experiment [3], more than 10000 nM; in experiment [4] it was 1000 to 10000 nM.
For `Cc1cc(NC(=O)c2cccc(Nc3ccnc4[nH]nc(O[C@@H]5CCCN(C(=O)C6CC6)C5)c34)c2)ccc1C(C)C` [compound 134, 3-[(3-{[(3R)-1-cyclopropanecarbonylpiperidin-3-yl]oxy}-1H-pyrazolo[3,4-b]pyridin-4-yl)amino]-N-[3-methyl-4-(propan-2-yl)phenyl]benzamide], the IC50 in experiment [1] is 100 to 1000 nM; in experiment [2], more than 10000 nM; in experiment [3] it was more than 10000 nM; in experiment [4] it was 1000 to 10000 nM.
Turning to `C=CC(=O)N1CCC[C@@H](Nc2n[nH]c3nccc(Oc4ccc(-c5nc(C(F)(F)F)c[nH]5)cc4)c23)C1` [compound 154], the IC50 was less than 100 nM in experiment [1], 1000 to 10000 nM in experiment [2], 1000 to 10000 nM in experiment [3] and more than 10000 nM in experiment [4].
As to `C=CC(=O)N1CCC[C@@H](Nc2n[nH]c3nccc(Oc4cccc(-c5ncc(C)s5)c4)c23)C1` [compound 148], the IC50 in experiment [1] was 100 to 1000 nM; in experiment [2] it was 100 to 1000 nM; in experiment [3], 1000 to 10000 nM; in experiment [4], more than 10000 nM.
For `CC(=O)N1CC[C@@H](Nc2n[nH]c3nccc(Oc4cccc(C(=O)Nc5ccc(C(C)C)c(C)c5)c4)c23)C1` [compound 123, 3-[(3-{[(3R)-1-acetylpyrrolidin-3-yl]amino}-1H-pyrazolo[3,4-b]pyridin-4-yl)oxy]-N-[3-methyl-4-(propan-2-yl)phenyl]benzamide], the IC50 in experiment [1] is 100 to 1000 nM; in experiment [2], 1000 to 10000 nM; in experiment [3], 1000 to 10000 nM; in experiment [4], less than 100 nM.
On to `CC#CC(=O)N1CCC[C@@H](Nc2n[nH]c3nccc(Oc4ccc(C(=O)Nc5ncc(C)s5)cc4)c23)C1` [compound 141], for which the IC50 in experiment [1] was less than 100 nM; in experiment [2], more than 10000 nM; in experiment [3], 1000 to 10000 nM; in experiment [4] it was 1000 to 10000 nM.
For the compound `Cc1ccnc(NC(=O)c2ccc(Oc3ccnc4[nH]nc(N[C@@H]5CCCN(C(=O)C(=O)N(C)C)C5)c34)cc2)c1` [compound 98, 4-[(3-{[(3R)-1-[(dimethylcarbamoyl)carbonyl]piperidin-3-yl]amino}-1H-pyrazolo[3,4-b]pyridin-4-yl)oxy]-N-(4-methylpyridin-2-yl)benzamide], the IC50 was less than 100 nM in experiment [1], more than 10000 nM in experiment [2], more than 10000 nM in experiment [3] and 100 to 1000 nM in experiment [4].
In the case of `Cc1cnc(NC(=O)c2ccc(Oc3ccnc4[nH]nc(N[C@@H]5CCCN(C(=O)/C=C/CN(C)C6CC6)C5)c34)cc2)s1` [compound 142], the IC50 was less than 100 nM in experiment [1], 1000 to 10000 nM in experiment [2], 1000 to 10000 nM in experiment [3] and 1000 to 10000 nM in experiment [4].
For the compound `CN(C)C(=O)N1CCC[C@@H](Nc2n[nH]c3nccc(Oc4ccc(C(=O)Nc5ccccn5)cc4)c23)C1` [compound 233, (3R)-N,N-dimethyl-3-[(4-{4-[(pyridin-2-yl)carbamoyl]phenoxy}-1H-pyrazolo[3,4-b]pyridin-3-yl)amino]piperidine-1-carboxamide], the IC50 in experiment [1] was less than 100 nM; in experiment [2], more than 10000 nM; in experiment [3], more than 10000 nM; in experiment [4], more than 10000 nM.
